# Experimental data reported in patent US20250000818A1, “NEW SYNERGISTIC COMBINATIONS BASED ON FENM AND AN ACETYLCHOLINESTERASE INHIBITOR” (REST Therapeutics, priority 2021, published 2025).
# Experiments:
# [1] = test system: mice intoxicated with Aβ25-35 oligomers; assay: Y-labyrinth spontaneous alternation test (YMT), short-term spatial working memory, Aβ25-35 oligomer ICV intoxication model; type: in vivo, male Swiss OF-1 mice
# Protocol: (§1) In vivo experiments were conducted on male Swiss OF-1 mice (January, St Berthevin, France) aged 7 to 9 weeks with a mass of 32±2 g. The animals are housed in groups of 8 to 10 individuals in plastic cages with free access to food and drink, in a controlled environment (12:00 day/night cycle, the light is switched on at 7:00 a.m. and the behavioral experiments take place between 9:00 a.m. and 5:00 p.m.), under controlled atmosphere and sound environment.
# The stock solutions of the compounds were obtained by dissolution in NaCl buffer (0.9%, vehicle) at a concentration of 2 mg/mL which corresponds to a dose of 5 mg/Kg. These stock solutions are stored at 4° C. for 2 weeks maximum.
# (§2) The vehicle solution or the control peptide are subjected to the same treatment before administration.
# The compounds are IP administered in a volume of 100 μL per 20 g of body mass. […] The doses of compounds mentioned in the experimental part correspond to the doses of salts of the used compounds and not to the mass equivalent of the compound itself. For each compound, the administered doses are 0.01, 0.03, 0.1, 0.3 and 1 mg/kg. In the case of the combination, the co-administered doses of donepezil and FENM were 0.03 and 0.01 mg/kg, respectively.
# (§3) The ability of the compounds and their combination to decrease the cognitive symptoms of neurodegeneration induced by the Aβ25-35 oligomers is tested. For this purpose, the administration of the test compounds takes place on the same day as the injection of the Aβ25-35 oligomers and continues on a daily basis until day 7 after the injection of the Aβ25-35 oligomers; the mice are then subjected to YMT tests, or PAT on day 8 after the injection of the Aβ25-35 oligomers.
# The spontaneous alternation test is used to study the (very short-term) spatial working memory in rodents. The labyrinth is made of opaque gray polyvinyl chloride (PVC). Each arm is 40 cm long, 13 cm high and 3 cm wide at its base and 10 cm at its top. The arms converge towards one another, with an equal angle between the different arms. In brief, each mouse is placed at the end of an arm and left free to move for an 8-minute session. The mouse entries in each of the arms, including the arm at which it was dropped, are recorded. An alternation is defined as the successive entry of the animal into three different arms.
# The animal data showing extreme behaviors (percentage of alternation <20% or >90%) are not taken into account in the calculations. The attrition rate is usually 5%. Under normal conditions, a mouse will spontaneously alternate the explorations of each arm. A mouse with impaired memory and/or orientation capabilities will have its alternation percentage decreased.
# Data were analyzed using unidirectional variance analyses (ANOVA, F-value), followed by a Dunnett test or non-parametric Kruskal-Wallis ANOVA (H-value) followed by a Dunn comparison test. The statistical significance levels are p<0.05, p<0.01 and p<0.001.
# [2] = test system: mice intoxicated with Aβ25-35 oligomers; assay: Passive avoidance test (PAT), long-term contextual memory, Aβ25-35 oligomer ICV intoxication model; type: in vivo, male Swiss OF-1 mice
# Protocol: as §1
# FENM was obtained from M2i Life Sciences (Saint-Cloud, France). The stock solutions of the compounds were obtained by dissolution in NaCl buffer (0.9%, vehicle) at a concentration of 2 mg/mL which corresponds to a dose of 5 mg/Kg. These stock solutions are stored at 4° C. for 2 weeks maximum.
# as §2
# The compounds are IP administered in a volume of 100 μL per 20 g of body mass. […] The doses of compounds mentioned in the experimental part correspond to the doses of salts of the used compounds and not to the mass equivalent of the compound itself. For each compound, the administered doses are 0.01, 0.03, 0.1, 0.3 and 1 mg/kg.
# as §3
# This test measures the long-term non-space (contextual) memory. The device used for this test is a box with two compartments (15×20×15 cm high), one illuminated with white PVC walls and the other in the dark with black PVC walls and a mesh floor. A guillotine door separates the compartments. A 60 W lamp is positioned 40 cm above the box and illuminates the white compartment. Electrical shocks (0.3 mA for 3 s) may be applied to the grid floor via a generator (Lafayette Instruments, Lafayette, USA). The test consists of a learning session and a test session. The guillotine door is closed during the training session. Each mouse is placed in the white compartment. After 5 seconds, the door is raised. When the mouse enters the dark compartment so that its four legs are in contact with the mesh, the door closes and electrical discharges are applied for 3 seconds. The time taken by the mouse to enter the dark compartment (STL-Tg) and the level of shock sensitivity (0=no sign; 1=surges; surge and vocalizes) are recorded. The test session is performed 24 hours after the learning session. Each mouse is placed back in the illuminated white compartment. After 5 seconds, the door is raised, the latency time (STL-R), i.e. the time it takes the mouse to go into the dark compartment, is measured. The maximum time is 300 seconds.
smiles,measurement,setting,value
"NC12CC3CC(C1)CC(CCF)(C3)C2.OBr [FENM, 3 (2-Fluoroethyl)tricyclo[3.3.1.13,7]decan-1-amine bromohydrate]",effect on percentage of alternation of intoxicated mice,[1]; 0.01 mg/kg,at the limit of statistical significance
same,PP (%) percentage protection,"[1]; 0.01 mg/kg IP daily to day 7, 100% = non-intoxicated vehicle, 0% = Aβ25-35/vehicle",38.5 ± 31.9%
same,effect on percentage of alternation of intoxicated mice,[1]; 0.03 mg/kg,significantly improves the percentage of alternation
same,PP (%) percentage protection,[1]; 0.03 mg/kg IP,58.4 ± 20.8%
same,PP (%) percentage protection,[1]; 0.1 mg/kg IP,71.2 ± 33.3 %
same,PP (%) percentage protection,[2]; 0.01 mg/kg IP,1.4 ± 18.3%
same,PP (%) percentage protection,[2]; 0.03 mg/kg IP,−12.2 ± 16.8 %
same,PP (%) percentage protection,[2]; 0.1 mg/kg IP,27.8 ± 24.8%
same,PP (%) percentage protection,[2]; 0.3 mg/kg IP,52.9 ± 14.2 %
same,effect on passive avoidance performance (latency) of intoxicated mice,[2]; 0.3 mg/kg or 1 mg/kg IP,"performances that are not significantly different from the control, non-intoxicated, untreated mice"
same,effect on passive avoidance performance (latency) of intoxicated mice,[2]; doses lower than 0.3 mg/kg,does not protect mice from mnesic disorders
